Measured values from PMC9014845 (Clinical cancer research : an official journal of the …, 2019).
Entries after “also recorded” stand apart in the source; their conditions may differ.

Test system: patients with advanced solid tumors harboring FGFR1–3 gene alterations
Assay: Phase I dose-escalation: safety/tolerability
Type: in vivo, human
Details: for Any TEAE / Any TEAE leading to discontinuation / Any TEAE leading to dose reduction / Any TEAE leading to treatment interruption / Serious TEAE / TEAE: ALT increased / TEAE: AST increased / TEAE: Abdominal pain / TEAE: Alopecia / TEAE: Anemia / TEAE: Back pain / TEAE: Blurred vision / TEAE: Constipation / TEAE: Creatinine increased (in blood) / TEAE: Decreased appetite / TEAE: Diarrhea / TEAE: Dry eye / TEAE: Dry mouth / TEAE: Dry skin / TEAE: Dysgeusia / TEAE: Dyspnea / TEAE: Edema peripheral / TEAE: Fatigue / TEAE: Hyperphosphatemia / TEAE: Hypertension / TEAE: Hypokalemia / TEAE: Hypomagnesemia / TEAE: Mucosal inflammation / TEAE: Myalgia / TEAE: Nail changes / TEAE: Nausea / TEAE: Stomatitis / TEAE: Vomiting: all grades

Debio 1347
DLT observed (60 mg): grade-2 dry mouth and eyes | Any TEAE (60 mg (n=10)): 10 (100) Number (%) of patients | Any TEAE leading to discontinuation (60 mg (n=10)): 1 (10) Number (%) of patients | Any TEAE leading to dose reduction (60 mg (n=10)): 2 (20) Number (%) of patients | Any TEAE leading to treatment interruption (60 mg (n=10)): 6 (60) Number (%) of patients | Serious TEAE (60 mg (n=10)): 2 (20) Number (%) of patients | TEAE: ALT increased (60 mg (n=10)): 1 (10) Number (%) of patients | TEAE: AST increased (60 mg (n=10)): 2 (20) Number (%) of patients | TEAE: Abdominal pain (60 mg (n=10)): 3 (30) Number (%) of patients | TEAE: Alopecia (60 mg (n=10)): 1 (10) Number (%) of patients | TEAE: Anemia (60 mg (n=10)): 4 (40) Number (%) of patients | TEAE: Back pain (60 mg (n=10)): 0 Number (%) of patients | TEAE: Blurred vision (60 mg (n=10)): 1 (10) Number (%) of patients | TEAE: Constipation (60 mg (n=10)): 2 (20) Number (%) of patients | TEAE: Creatinine increased (in blood) (60 mg (n=10)): 2 (20) Number (%) of patients | TEAE: Decreased appetite (60 mg (n=10)): 3 (30) Number (%) of patients | TEAE: Diarrhea (60 mg (n=10)): 7 (70) Number (%) of patients | TEAE: Dry eye (60 mg (n=10)): 2 (20) Number (%) of patients | TEAE: Dry mouth (60 mg (n=10)): 4 (40) Number (%) of patients | TEAE: Dry skin (60 mg (n=10)): 0 Number (%) of patients | TEAE: Dysgeusia (60 mg (n=10)): 1 (10) Number (%) of patients | TEAE: Dyspnea (60 mg (n=10)): 3 (30) Number (%) of patients | TEAE: Edema peripheral (60 mg (n=10)): 1 (10) Number (%) of patients | TEAE: Fatigue (60 mg (n=10)): 5 (50) Number (%) of patients | TEAE: Hyperphosphatemia (60 mg (n=10)): 9 (90) Number (%) of patients | TEAE: Hypertension (60 mg (n=10)): 1 (10) Number (%) of patients | TEAE: Hypokalemia (60 mg (n=10)): 0 Number (%) of patients | TEAE: Hypomagnesemia (60 mg (n=10)): 2 (20) Number (%) of patients | TEAE: Mucosal inflammation (60 mg (n=10)): 1 (10) Number (%) of patients | TEAE: Myalgia (60 mg (n=10)): 1 (10) Number (%) of patients | TEAE: Nail changes (60 mg (n=10)): 2 (20) Number (%) of patients | TEAE: Nausea (60 mg (n=10)): 3 (30) Number (%) of patients | TEAE: Stomatitis (60 mg (n=10)): 1 (10) Number (%) of patients | TEAE: Vomiting (60 mg (n=10)): 2 (20) Number (%) of patients | DLT observed (80 mg): hyperamylasemia; also recorded: grade-3 asymptomatic hypercalcemia | Any TEAE (80 mg (n=10)): 10(100%) Number (%) of patients | Any TEAE leading to discontinuation (80 mg (n=10)): 3 (30) Number (%) of patients | Any TEAE leading to dose reduction (80 mg (n=10)): 2 (20) Number (%) of patients | Any TEAE leading to treatment interruption (80 mg (n=10)): 5 (50) Number (%) of patients | Serious TEAE (80 mg (n=10)): 3 (30) Number (%) of patients | TEAE: ALT increased (80 mg (n=10)): 1 (10) Number (%) of patients | TEAE: AST increased (80 mg (n=10)): 1 (10) Number (%) of patients | TEAE: Abdominal pain (80 mg (n=10)): 3 (30) Number (%) of patients | TEAE: Alopecia (80 mg (n=10)): 1 (10) Number (%) of patients | TEAE: Anemia (80 mg (n=10)): 2 (20) Number (%) of patients | TEAE: Back pain (80 mg (n=10)): 0 Number (%) of patients | TEAE: Blurred vision (80 mg (n=10)): 2 (20) Number (%) of patients | TEAE: Constipation (80 mg (n=10)): 3 (30) Number (%) of patients | TEAE: Creatinine increased (in blood) (80 mg (n=10)): 2 (20) Number (%) of patients | TEAE: Decreased appetite (80 mg (n=10)): 5 (50) Number (%) of patients | TEAE: Diarrhea (80 mg (n=10)): 5 (50) Number (%) of patients | TEAE: Dry eye (80 mg (n=10)): 0 Number (%) of patients | TEAE: Dry mouth (80 mg (n=10)): 5 (50) Number (%) of patients | TEAE: Dry skin (80 mg (n=10)): 2 (20) Number (%) of patients | TEAE: Dysgeusia (80 mg (n=10)): 2 (20) Number (%) of patients | TEAE: Dyspnea (80 mg (n=10)): 1 (10) Number (%) of patients | TEAE: Edema peripheral (80 mg (n=10)): 2 (20) Number (%) of patients | TEAE: Fatigue (80 mg (n=10)): 5 (50) Number (%) of patients | TEAE: Hyperphosphatemia (80 mg (n=10)): 9 (90) Number (%) of patients | TEAE: Hypertension (80 mg (n=10)): 0 Number (%) of patients | TEAE: Hypokalemia (80 mg (n=10)): 2 (20) Number (%) of patients | TEAE: Hypomagnesemia (80 mg (n=10)): 1 (10) Number (%) of patients | TEAE: Mucosal inflammation (80 mg (n=10)): 3 (30) Number (%) of patients | TEAE: Myalgia (80 mg (n=10)): 3 (30) Number (%) of patients | TEAE: Nail changes (80 mg (n=10)): 3 (30) Number (%) of patients | TEAE: Nausea (80 mg (n=10)): 3 (30) Number (%) of patients | TEAE: Stomatitis (80 mg (n=10)): 3 (30) Number (%) of patients | TEAE: Vomiting (80 mg (n=10)): 1 (10) Number (%) of patients | DLT observed (110 mg): stomatitis; also recorded: grade-3 bilirubin increase and hyper-phosphatemia | Any TEAE (110 mg (n=9)): 9 (100%) Number (%) of patients | Any TEAE leading to discontinuation (110 mg (n=9)): 1 (11) Number (%) of patients | Any TEAE leading to dose reduction (110 mg (n=9)): 7 (78) Number (%) of patients | Any TEAE leading to treatment interruption (110 mg (n=9)): 8 (89) Number (%) of patients | Serious TEAE (110 mg (n=9)): 4 (44) Number (%) of patients | TEAE: ALT increased (110 mg (n=9)): 1 (11) Number (%) of patients | TEAE: AST increased (110 mg (n=9)): 1 (11) Number (%) of patients | TEAE: Abdominal pain (110 mg (n=9)): 2 (22) Number (%) of patients | TEAE: Alopecia (110 mg (n=9)): 4 (44) Number (%) of patients | TEAE: Anemia (110 mg (n=9)): 3 (33) Number (%) of patients | TEAE: Back pain (110 mg (n=9)): 1 (11) Number (%) of patients | TEAE: Blurred vision (110 mg (n=9)): 2 (22) Number (%) of patients | TEAE: Constipation (110 mg (n=9)): 3 (33) Number (%) of patients | TEAE: Creatinine increased (in blood) (110 mg (n=9)): 0 Number (%) of patients | TEAE: Decreased appetite (110 mg (n=9)): 3 (33) Number (%) of patients | TEAE: Diarrhea (110 mg (n=9)): 3 (33) Number (%) of patients | TEAE: Dry eye (110 mg (n=9)): 4 (44) Number (%) of patients | TEAE: Dry mouth (110 mg (n=9)): 4 (44) Number (%) of patients | TEAE: Dry skin (110 mg (n=9)): 5 (55) Number (%) of patients | TEAE: Dysgeusia (110 mg (n=9)): 4 (44) Number (%) of patients | TEAE: Dyspnea (110 mg (n=9)): 3 (33) Number (%) of patients | TEAE: Edema peripheral (110 mg (n=9)): 2 (22) Number (%) of patients | TEAE: Fatigue (110 mg (n=9)): 5 (55) Number (%) of patients | TEAE: Hyperphosphatemia (110 mg (n=9)): 9 (100) Number (%) of patients | TEAE: Hypertension (110 mg (n=9)): 0 Number (%) of patients | TEAE: Hypokalemia (110 mg (n=9)): 1 (11) Number (%) of patients | TEAE: Hypomagnesemia (110 mg (n=9)): 0 Number (%) of patients | TEAE: Mucosal inflammation (110 mg (n=9)): 2 (22) Number (%) of patients | TEAE: Myalgia (110 mg (n=9)): 3 (33) Number (%) of patients | TEAE: Nausea (110 mg (n=9)): 6 (67) Number (%) of patients | TEAE: Stomatitis (110 mg (n=9)): 7 (78) Number (%) of patients | TEAE: Vomiting (110 mg (n=9)): 3 (33) Number (%) of patients | Any TEAE (150 mg (n=3)): 3 (100%) Number (%) of patients | Any TEAE leading to discontinuation (150 mg (n=3)): 0 (0) Number (%) of patients | Any TEAE leading to treatment interruption (150 mg (n=3)): 3 (100) Number (%) of patients | Serious TEAE (150 mg (n=3)): 2 (67) Number (%) of patients | TEAE: ALT increased (150 mg (n=3)): 0 Number (%) of patients | TEAE: AST increased (150 mg (n=3)): 0 Number (%) of patients | TEAE: Abdominal pain (150 mg (n=3)): 1 (33) Number (%) of patients | TEAE: Alopecia (150 mg (n=3)): 2 (67) Number (%) of patients | TEAE: Anemia (150 mg (n=3)): 0 Number (%) of patients
